According to paper PMC9238271, “The quorum sensing peptide EntF* promotes colorectal cancer metastasis in mice: a new factor in the host-microbiome interaction” (BMC Biology, 2022):
“Also recorded” adds a separate entry of the source.

Legend:
[1] = Formation of EntF* from EntF in HBSS (buffer); assay type: in vitro ADME; settings: for Formation rate, HBSS: EntF in HBSS; for EntF* Conc formed from EntF / EntF* without metabolisation, Conc / EntF*/EntF: single run
[2] = system: EntF*-mediated E-cadherin downregulation in HCT-8 cells; experiment: Antagonist activity analysis by Western blot; assay type: cell-based
Experimental: HCT-8, HT-29, and HT-116 cells were grown in DMEM medium supplied with 10% fetal bovine serum (FBS) and 1% penicillin-streptomycin. Caco-2 cells were grown in DMEM medium supplied with 10% FBS, 1% non-essential amino acid NEAA), and 1% penicillin-streptomycin. Cells were cultured at 37 °C and 5% CO2. As cells reached confluency, they were detached using 0.25% Trypsin-EDTA.
For Western blot analyses, HCT-8 (n = 15), HCT-116 (n = 12), Caco-2 (n = 6), and HT-29 (n = 12) cells were seeded in 6-well plates at a density of 1 × 10^6 cells/well. Twenty-four hours after seeding, all cell lines were treated with 1 μM EntF* or a placebo solution. HCT-8 cells were also tested for responsiveness to 1 μM EntF* synthetic alanine-derived analogs. For antagonist activity analysis, HCT-8 cells were treated with 1 μM Nef-M1 or 1 μM EntF*A1 alone or in combination with 500 nM EntF*. After 24 h, cells were detached from the surface and lysed in RIPA buffer (Thermo Scientific). Protein concentration was determined using the modified Lowry protein assay kit (Thermo Scientific), according to the manufacturer’s instructions. […]
The Kolmogorov-Smirnov test was used to assess if data obtained were normally distributed. […] Cohen’s d values were calculated as a measure of the effect size when similar standard deviations for both groups were found, and sample sizes were the same.

[3] = system: luciferase-transfected HCT-8/E11 cells injected into the cecal wall; experiment: Orthotopic mouse model of colorectal cancer: weekly bioluminescent imaging; assay type: in vivo, female athymic nude mice (Swiss nu/nu)
Experimental: All in vivo experiments were performed according to the Ethical Committee principles of laboratory animal welfare, approved by our institute (Ghent University, Faculty of Medicine and Health Sciences, approval number ECD 17-90). Mice were maintained in a sterile environment under controlled conditions (light–dark cycle with light from 7:00 h to 17:00 h, temperature 21–25 °C and humidity 45–65%). Before the experiment, mice were allowed to acclimate to the abovementioned conditions for a minimum of 7 days.
Six-week-old female athymic nude mice (Swiss nu/nu) were anesthetized, and a minimally invasive midline laparotomy was performed to localize the cecum. The cecum was then gently pulled out, and luciferase-transfected HCT-8/E11 cells (1 × 10^6 cells) in 20 μL serum-free DMEM medium with Matrigel (1:1) were injected into the cecal wall. Before implantation, cells were treated with EntF* (10^2 nM), Phr0662 (10^2 nM), vehicle (PBS), or TGFα positive control (0.1 μg mL^−1) solutions for 5 days. The cecum was then carefully placed back into the abdominal cavity and the surgical incision was closed with two layers of sutures with PDS 6-0. […] Once a week, mice were examined for tumor growth and metastases using bioluminescent imaging with the IVIS Lumina II (Perkin Elmer, Belgium) after i.p. injection with 200 μL luciferin (150 mg kg^−1). After 6 weeks, mice were euthanized using cervical dislocation, and the liver, diaphragm, lungs, cecum, duodenum, and peritoneum were macroscopically examined for the presence of tumor nodules. Liver and lung tissues were then fixed in formalin for 24 h and stored in 70% ethanol for maximum 3 days before embedding in paraffin. Next, a hematoxylin and eosin (H&E) staining was performed on 8 μm sections, and 3 sections per mouse were visualized using microscopy. Slides from tumor-bearing mice were analyzed by two blinded, independent investigators using the scoring system described in Additional file 5: Table S3. In case of differences, slides were scored by a third blinded, independent investigator for consensus.
The Kolmogorov-Smirnov test was used to assess if data obtained were normally distributed. For sample size n < 10, non-parametric tests (Mann-Whitney U test) were performed directly. Slope comparison was based on linear regression analysis. Bootstrapped medians and Hedges G-values were used to calculate the effect size when sample sizes were different between the groups.

[4] = HBSS, initial concentration EntF 31.82 µM, time 0
[5] = HBSS, initial concentration EntF 31.82 µM, time 1
[6] = HBSS, initial concentration EntF 31.82 µM, time 5
[7] = HBSS, initial concentration EntF 31.82 µM, time 10
[8] = HBSS, initial concentration EntF 31.82 µM, time 30
[9] = HBSS, initial concentration EntF 31.82 µM, time 60
[10] = HBSS, initial concentration EntF 31.82 µM, time 120
[11] = HBSS, initial concentration EntF 31.82 µM, time 180

Compound: CC(C)C[C@@H]1NC(=O)[C@H](CO)NC(=O)[C@H](Cc2ccccc2)NC(=O)[C@H](C(C)C)NC(=O)[C@@H](NC(=O)[C@H](CCC(=O)O)NC(=O)[C@@H](NC(=O)[C@H](CC(C)C)NC(=O)[C@H](CC(N)=O)NC(=O)[C@@H](N)CO)C(C)C)CSSC[C@@H](C(=O)N[C@@H](CC(N)=O)C(=O)O)NC(=O)[C@H](CCCCN)NC(=O)[C@H](CCCCN)NC(=O)[C@H](Cc2ccccc2)NC1=O (single isomer, unassigned) [EntF*]
- Formation rate, HBSS ([1]; value X1): 0.0321 %*min-1
- Formation rate, HBSS ([1]; value X2): 0.0130 %*min-1
- Formation rate, HBSS ([1]; value X3): 0.0600 %*min-1
- Formation rate, HBSS ([1]; value X4): 0.0499 %*min-1
- Formation rate, HBSS ([1]; value X5): 0.0573 %*min-1
- Formation rate, HBSS ([1]; value X6): 0.0440 %*min-1
- Formation rate, HBSS ([1]; value X7): 0.0469 %*min-1
- Rico, Average ([1]; HBSS, initial concentration EntF 31.82 µM, average over the time points 1-180): 0.0433 %*min-1
- EntF* Conc formed from EntF [1, 4]: 0.00 µM
- EntF* without metabolisation, Conc [1, 4]: 0.00 µM
- EntF* without metabolisation, Conc [1, 5]: 0.01 µM
- EntF*/EntF [1, 5]: 0.0321%
- EntF* Conc formed from EntF [1, 6]: 0.02 µM
- EntF* without metabolisation, Conc [1, 6]: 0.02 µM
- EntF*/EntF [1, 6]: 0.0652%
- EntF* Conc formed from EntF [1, 7]: 0.19 µM
- EntF* without metabolisation, Conc [1, 7]: 0.19 µM
- EntF*/EntF [1, 7]: 0.60%
- EntF* Conc formed from EntF [1, 8]: 0.48 µM
- EntF* without metabolisation, Conc [1, 8]: 0.48 µM
- EntF*/EntF [1, 8]: 1.50%
- EntF* Conc formed from EntF [1, 9]: 1.09 µM
- EntF* without metabolisation, Conc [1, 9]: 1.09 µM
- EntF*/EntF [1, 9]: 3.44%
- EntF* Conc formed from EntF [1, 10]: 1.68 µM
- EntF* without metabolisation, Conc [1, 10]: 1.68 µM
- EntF*/EntF [1, 10]: 5.28%
- EntF* Conc formed from EntF [1, 11]: 2.69 µM
- EntF* without metabolisation, Conc [1, 11]: 2.69 µM
- EntF*/EntF [1, 11]: 8.45%
- stability of EntF* in HBSS ([1]; HBSS, remark in sheet HBSS): EntF* is stable in HBSS
- E-cadherin level, EntF* only ([2]; HCT-8 cells, EntF* only, 24 h, relative to control, n = 15): 62%
- Relative E-cadherin level (% of control), mean ([2]; mean of the replicates): 62.0
- effect size class by Hedges' G, bioluminescence ([3]; after a 6-week treatment, compared to the placebo group): medium to large effect
- effect size: increase in bioluminescence compared to the placebo ([3]; after a 6-week treatment, bootstrapped median): 79%
- luciferase activity / tumor growth compared to the vehicle ([3]; daily i.p. over 6 weeks, linear regression slope comparison): statistically significant increase; also recorded: significant increase in tumor growth
